For 13 compounds, IC50 results are on record in patent publication US20260022142A1, “MACROCYCLIC IMMUNOMODULATORS” (Bristol-Myers Squibb Company, priority 2022, published 2026).

Bridge positions count the residues as written; N and C are the ends. Square brackets hold non-standard residues; d marks the D form. Peptide text beside a SMILES is read from it. * marks the point of attachment. ξ: configuration not given here. Phe(4-CH2CH2COOH) = N[C@@H](Cc1ccc(CCC(=O)O)cc1)C(=O)O; Phe(4-COOH) = N[C@@H](Cc1ccc(C(=O)O)cc1)C(=O)O; Bip = N[C@@H](Cc1ccc(-c2ccccc2)cc1)C(=O)O; Phe(3-Me) = Cc1cccc(C[C@H](N)C(=O)O)c1; Phe(4-Me) = Cc1ccc(C[C@H](N)C(=O)O)cc1; 4Pal = N[C@@H](Cc1ccncc1)C(=O)O; Cha = N[C@@H](CC1CCCCC1)C(=O)O; Cit = NC(=O)NCCC[C@H](N)C(=O)O; Thr(3ξ) = CC(O)[C@H](N)C(=O)O; dNle = CCCC[C@@H](N)C(=O)O; Carboxymethyl = O=C(O)C*; Orn = NCCC[C@H](N)C(=O)O; Aun = NCCCCCCCCCCC(=O)O; Dab = NCC[C@H](N)C(=O)O; Dap = NC[C@H](N)C(=O)O; AEEA = NCCOCCOCC(=O)O; Ac3c = NC1(C(=O)O)CC1

By IC50 is commonly meant the concentration at which inhibition is half-maximal.

The target in this assay is T1, PD-1/PD-L1 interaction (PE-labeled human PD-L1-Ig binding to Jurkat cell line over-expressing human PD-1) (Homo sapiens, UniProt Q15116).
T1 construct: expressed in transfected cells; host or cells: Jurkat
T1 sequence (Q15116 25-288): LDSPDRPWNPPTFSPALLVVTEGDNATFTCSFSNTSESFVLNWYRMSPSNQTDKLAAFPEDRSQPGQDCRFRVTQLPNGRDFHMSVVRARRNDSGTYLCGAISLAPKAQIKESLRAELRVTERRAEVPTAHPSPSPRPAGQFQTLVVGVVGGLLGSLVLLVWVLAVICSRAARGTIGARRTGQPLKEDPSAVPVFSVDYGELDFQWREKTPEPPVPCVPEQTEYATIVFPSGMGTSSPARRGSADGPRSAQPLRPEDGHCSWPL
As to the kind of experiment: Jurkat-PD-1 Cell Binding High-Content Screening Assay (CBA). The assay is classed as cell-based. As to conditions: Jurkat cell line over-expressing human PD-1; PE-labeled PD-L1-Ig 20 nM final; read-out: Jurkat hPD1-PDL1 IC50. The gist of the method: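 Jurkat cells stably over-expressing human PD-1 were seeded in DMEM with 10% fetal calf serum and pre-incubated with compound for 2 h at 37° C. PE-labeled human PD-L1-Ig was then added at 20 nM final for 1 hour, after which cells were fixed with paraformaldehyde, Hoechst-stained and imaged by high-content microscopy.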
On to `CC(C)C[C@H]1NC(=O)[C@H](CCCN)NC(=O)[C@H](Cc2ccc(O)cc2)NC(=O)[C@H](Cc2ccc(-c3ccccc3)cc2)NC(=O)[C@H](C(C)C)NC(=O)[C@H](Cc2c[nH]c3ccccc23)NC(=O)[C@H](CC(=O)O)NC(=O)[C@H](Cc2ccc(O)cc2)NC(=O)[C@H](Cc2ccncc2)NC(=O)CSC[C@@H](C(=O)N[C@@H](CCN)C(=O)NCCOCCOCC(=O)NCCCCCCCCCCC(=O)O)NC(=O)[C@H](CCCN)NC(=O)[C@H](C(C)C)NC(=O)[C@H](CC2CCCCC2)NC(=O)[C@H](CCN)NC1=O` [Compound 2703] ({CH2CO}-[4Pal]YDWV[Bip]Y[Orn][dL][Dab][Cha]V[Orn]C[Dab][AEEA][Aun]-OH; thioether N-14), for which the IC50 was determined as 19.3 nM. In the case of `Cc1cccc(C[C@@H]2NC(=O)[C@H](CC(=O)O)NC(=O)[C@H](Cc3ccc(OCC(=O)O)cc3)NC(=O)[C@H](C(C)O)NC(=O)CSC[C@@H](C(=O)N[C@@H](CCN)C(=O)NCCCCCCCCCCC(=O)O)NC(=O)[C@H](C(C)O)NC(=O)[C@H](C(C)C)NC(=O)[C@H](CC3CCCCC3)NC(=O)[C@H](CCN)NC(=O)[C@@H](CC(C)C)NC(=O)[C@H](CCCNC(N)=O)NC(=O)[C@H](Cc3ccc(OCC(=O)O)cc3)NC(=O)[C@H](Cc3ccc(-c4ccccc4)cc3)NC(=O)[C@H](Cc3ccc(OCC(=O)O)cc3)NC2=O)c1` (stereo partly drawn) [Compound 3487] ({CH2CO}-[Thr(3ξ)]Y(Carboxymethyl)D[Phe(3-Me)]Y(Carboxymethyl)[Bip]Y(Carboxymethyl)[Cit][dL][Dab][Cha]V[Thr(3ξ)]C[Dab][Aun]-OH; thioether N-14) it was 30.6 nM; in that of `CCCC[C@H]1NC(=O)[C@H](CCCN)NC(=O)[C@H](C(C)C)NC(=O)[C@H](Cc2ccc(-c3ccccc3)cc2)NC(=O)[C@H](C(C)C)NC(=O)[C@H](Cc2cccc(C)c2)NC(=O)[C@H](CC(=O)O)NC(=O)[C@H](Cc2ccc(OCC(=O)O)cc2)NC(=O)[C@H](CN)NC(=O)CSC[C@@H](C(=O)N[C@@H](CCCCN)C(=O)NCCCCCCCCCCC(=O)O)NC(=O)[C@H](CN)NC(=O)[C@H](C(C)C)NC(=O)[C@H](CC2CCCCC2)NC(=O)[C@H](CCN)NC1=O` [Compound 2685] ({CH2CO}-[Dap]Y(Carboxymethyl)D[Phe(3-Me)]V[Bip]V[Orn][dNle][Dab][Cha]V[Dap]CK[Aun]-OH; thioether N-14), 11.6 nM. Turning to `CC(C)C[C@@H]1NC(=O)[C@H](Cc2c[nH]c3ccccc23)NC(=O)[C@H](CC(=O)O)NC(=O)[C@H](Cc2ccc(C(=O)O)cc2)NC(=O)[C@H](Cc2ccc(OCC(=O)O)cc2)NC(=O)CSC[C@@H](C(=O)NCCOCCOCC(=O)NCCCCCCCCCCC(=O)O)NC(=O)[C@H](CCN)NC(=O)[C@H](C(C)C)NC(=O)[C@H](CC2CCCCC2)NC(=O)[C@H](CCN)NC(=O)[C@@H](CC(C)C)NC(=O)[C@H](CCCN)NC(=O)[C@H](Cc2ccc(O)cc2)NC(=O)[C@H](Cc2ccc(-c3ccccc3)cc2)NC1=O` [Compound 1239] ({CH2CO}-Y(Carboxymethyl)[Phe(4-COOH)]DWL[Bip]Y[Orn][dL][Dab][Cha]V[Dab]C[AEEA][Aun]-OH; thioether N-14), the IC50 worked out at 30.2 nM. In the case of `Cc1cccc(C[C@@H]2NC(=O)[C@H](CC(=O)O)NC(=O)[C@H](Cc3ccc(OCC(=O)O)cc3)NC(=O)[C@H](CN)NC(=O)CSC[C@@H](C(=O)N[C@@H](CCN)C(=O)NCCCCCCCCCCC(=O)O)NC(=O)[C@@H]([C@H](C)O)NC(=O)[C@H](C(C)C)NC(=O)[C@H](CC(C)C)NC(=O)[C@H](CCN)NC(=O)[C@@H](CC(C)C)NC(=O)[C@H](CCCN)NC(=O)[C@H](Cc3ccc(O)cc3)NC(=O)[C@H](Cc3ccc(-c4ccccc4)cc3)NC(=O)[C@H](C(C)C)NC2=O)c1` [Compound 2771] ({CH2CO}-[Dap]Y(Carboxymethyl)D[Phe(3-Me)]V[Bip]Y[Orn][dL][Dab]LV[dT]C[Dab][Aun]-OH; thioether N-14) it was 39.5 nM. In the case of `Cc1cccc(C[C@@H]2NC(=O)[C@H](CC(=O)O)NC(=O)[C@H](Cc3ccc(OCC(=O)O)cc3)NC(=O)[C@H](CN)NC(=O)CSC[C@@H](C(=O)N[C@@H](CCN)C(=O)NCCCCCCCCCCC(=O)O)NC(=O)[C@H](CO)NC(=O)[C@H](C(C)C)NC(=O)[C@H](CC3CCCCC3)NC(=O)[C@H](CCN)NC(=O)[C@@H](CC(C)C)NC(=O)[C@H](CCCN)NC(=O)[C@H](Cc3ccc(O)cc3)NC(=O)[C@H](Cc3ccc(-c4ccccc4)cc3)NC(=O)[C@H](Cc3ccc(O)cc3)NC2=O)c1` [Compound 2712] ({CH2CO}-[Dap]Y(Carboxymethyl)D[Phe(3-Me)]Y[Bip]Y[Orn][dL][Dab][Cha]VSC[Dab][Aun]-OH; thioether N-14) it was 20.6 nM; in that of `Cc1cccc(C[C@@H]2NC(=O)[C@H](CC(=O)O)NC(=O)[C@H](Cc3ccc(OCC(=O)O)cc3)NC(=O)[C@H](CN)NC(=O)CSC[C@@H](C(=O)N[C@@H](CCN)C(=O)NCCCCCCCCCCC(=O)O)NC(=O)[C@H](CCCNC(=N)N)NC(=O)[C@H](Cc3ccc(O)cc3)NC(=O)[C@H](CC3CCCCC3)NC(=O)[C@H](CCN)NC(=O)[C@@H](CC(C)C)NC(=O)[C@H](CCCN)NC(=O)[C@H](Cc3ccc(O)cc3)NC(=O)[C@H](Cc3ccc(-c4ccccc4)cc3)NC(=O)[C@H](Cc3ccc(O)cc3)NC2=O)c1` [Compound 2512] ({CH2CO}-[Dap]Y(Carboxymethyl)D[Phe(3-Me)]Y[Bip]Y[Orn][dL][Dab][Cha]YRC[Dab][Aun]-OH; thioether N-14), 33.4 nM; in that of `CC(C)C[C@H]1NC(=O)[C@H](CCCN)NC(=O)[C@H](C(C)C)NC(=O)[C@H](Cc2ccc(-c3ccccc3)cc2)NC(=O)[C@H](C(C)C)NC(=O)[C@H](Cc2c[nH]c3ccccc23)NC(=O)[C@H](CC(=O)O)NC(=O)[C@H](Cc2ccc(OCC(=O)O)cc2)NC(=O)[C@H](CCCNC(=N)N)NC(=O)CSC[C@@H](C(=O)N[C@@H](CCN)C(=O)NCCCCCCCCCCC(=O)O)NC(=O)[C@H](CCN)NC(=O)[C@H](C(C)C)NC(=O)[C@H](CC2CCCCC2)NC(=O)[C@H](CCN)NC1=O` [Compound 3288] ({CH2CO}-RY(Carboxymethyl)DWV[Bip]V[Orn][dL][Dab][Cha]V[Dab]C[Dab][Aun]-OH; thioether N-14), 13.7 nM. Regarding `Cc1ccc(C[C@@H]2NC(=O)[C@H](Cc3cccc(C)c3)NC(=O)[C@H](CC(=O)O)NC(=O)[C@H](Cc3ccc(OCC(=O)O)cc3)NC(=O)[C@H](CN)NC(=O)CSC[C@@H](C(=O)N[C@@H](CCN)C(=O)NCCOCCOCC(=O)NCCCCCCCCCCC(=O)O)NC(=O)[C@H](CCCN)NC(=O)[C@H](C(C)C)NC(=O)[C@H](CC3CCCCC3)NC(=O)[C@H](CCN)NC(=O)[C@@H](CC(C)C)NC(=O)[C@H](CCCN)NC(=O)[C@H](Cc3ccc(O)cc3)NC(=O)[C@H](Cc3ccc(-c4ccccc4)cc3)NC2=O)cc1` [Compound 2074] ({CH2CO}-[Dap]Y(Carboxymethyl)D[Phe(3-Me)][Phe(4-Me)][Bip]Y[Orn][dL][Dab][Cha]V[Orn]C[Dab][AEEA][Aun]-OH; thioether N-14), the IC50 worked out at 5.5 nM. In the case of `Cc1cccc(C[C@@H]2NC(=O)[C@H](CC(=O)O)NC(=O)[C@H](Cc3ccc(OCC(=O)O)cc3)NC(=O)[C@H](CCCNC(=N)N)NC(=O)CSC[C@@H](C(=O)N[C@@H](CCCN)C(=O)NCCCCCCCCCCC(=O)O)NC(=O)[C@H]([C@@H](C)O)NC(=O)[C@H](C(C)C)NC(=O)[C@H](CC3CCCCC3)NC(=O)[C@H](CCN)NC(=O)[C@@H](CC(C)C)NC(=O)[C@H](CCCNC(N)=O)NC(=O)[C@H](Cc3ccc(OCC(=O)O)cc3)NC(=O)[C@H](Cc3ccc(-c4ccccc4)cc3)NC(=O)[C@H](Cc3ccc(OCC(=O)O)cc3)NC2=O)c1` [Compound 2838] ({CH2CO}-RY(Carboxymethyl)D[Phe(3-Me)]Y(Carboxymethyl)[Bip]Y(Carboxymethyl)[Cit][dL][Dab][Cha]VTC[Orn][Aun]-OH; thioether N-14) it was 30.2 nM.

Regarding `Cc1cccc(C[C@@H]2NC(=O)[C@H](CC(=O)O)NC(=O)[C@H](Cc3ccc(OCC(=O)O)cc3)NC(=O)[C@H](CCCNC(=N)N)NC(=O)CSC[C@@H](C(=O)NC3(C(=O)NCCCCCCCCCCC(=O)O)CC3)NC(=O)[C@H]([C@@H](C)O)NC(=O)[C@H](C(C)C)NC(=O)[C@H](CC3CCCCC3)NC(=O)[C@H](CCN)NC(=O)[C@@H](CC(C)C)NC(=O)[C@H](CCCN)NC(=O)[C@H](Cc3ccc(OCC(=O)O)cc3)NC(=O)[C@H](Cc3ccc(-c4ccccc4)cc3)NC(=O)[C@H](Cc3ccc(CCC(=O)O)cc3)NC2=O)c1` [Compound 2132] ({CH2CO}-RY(Carboxymethyl)D[Phe(3-Me)][Phe(4-CH2CH2COOH)][Bip]Y(Carboxymethyl)[Orn][dL][Dab][Cha]VTC[Ac3c][Aun]-OH; thioether N-14), the IC50 was found to be 11.5 nM.

As to `Cc1cccc(C[C@@H]2NC(=O)[C@H](CC(=O)O)NC(=O)[C@H](Cc3ccncc3)NC(=O)[C@H](Cc3ccc(OCC(=O)O)cc3)NC(=O)CSC[C@@H](C(=O)N[C@@H](CCN)C(=O)NCCCCCCCCCCC(=O)O)NC(=O)[C@H]([C@@H](C)O)NC(=O)[C@H](C(C)C)NC(=O)[C@H](CC3CCCCC3)NC(=O)[C@H](CCN)NC(=O)[C@@H](CC(C)C)NC(=O)[C@H](CCCN)NC(=O)[C@H](Cc3ccc(O)cc3)NC(=O)[C@H](Cc3ccc(-c4ccccc4)cc3)NC(=O)[C@H](C(C)C)NC2=O)c1` [Compound 2733] ({CH2CO}-Y(Carboxymethyl)[4Pal]D[Phe(3-Me)]V[Bip]Y[Orn][dL][Dab][Cha]VTC[Dab][Aun]-OH; thioether N-14), the 50% inhibitory concentration (IC50) stood at 42.2 nM. In the case of `Cc1cccc(C[C@@H]2NC(=O)[C@H](CC(=O)O)NC(=O)[C@H](Cc3ccc(C(=O)O)cc3)NC(=O)[C@H](Cc3ccncc3)NC(=O)CSC[C@@H](C(=O)NC3(C(=O)NCCCCCCCCCCC(=O)O)CC3)NC(=O)[C@H]([C@@H](C)O)NC(=O)[C@H](C(C)C)NC(=O)[C@H](CC(C)C)NC(=O)[C@H](CCN)NC(=O)[C@@H](CC(C)C)NC(=O)[C@H](CCCN)NC(=O)[C@H](Cc3ccc(OCC(=O)O)cc3)NC(=O)[C@H](Cc3ccc(-c4ccccc4)cc3)NC(=O)[C@H](Cc3ccc(OCC(=O)O)cc3)NC2=O)c1` [Compound 2168] ({CH2CO}-[4Pal][Phe(4-COOH)]D[Phe(3-Me)]Y(Carboxymethyl)[Bip]Y(Carboxymethyl)[Orn][dL][Dab]LVTC[Ac3c][Aun]-OH; thioether N-14) it was 26.7 nM.
